Patent US10870634B2, “Histone demethylase inhibitors” (CELGENE QUANTICEL RESEARCH, INC., priority 2016, dated 2020)

Molecular target: T1, JMJD2C (Homo sapiens, UniProt Q9H3R0)
T1 construct: purchased BPS Bioscience 50105
T1 sequence (Q9H3R0 2-372): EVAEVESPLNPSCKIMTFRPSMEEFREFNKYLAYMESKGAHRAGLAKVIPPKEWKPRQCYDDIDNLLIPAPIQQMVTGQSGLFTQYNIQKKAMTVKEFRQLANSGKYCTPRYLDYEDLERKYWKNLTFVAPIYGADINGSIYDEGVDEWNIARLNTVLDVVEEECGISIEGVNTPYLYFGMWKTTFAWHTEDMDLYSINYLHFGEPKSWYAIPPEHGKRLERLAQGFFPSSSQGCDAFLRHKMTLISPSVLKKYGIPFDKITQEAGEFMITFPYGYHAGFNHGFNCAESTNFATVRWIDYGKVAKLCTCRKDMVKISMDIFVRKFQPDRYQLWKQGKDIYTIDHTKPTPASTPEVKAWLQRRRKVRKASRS
Test: JMJD2C in vitro enzyme inhibition assay (TR-FRET)
Format: biochemical
Conditions: 0.3 nM JMJD2C, 300 nM H3K9me3-biotin peptide, 2 μM alpha-ketoglutaric acid
Text: This assay determines the ability of a test compound to inhibit Jarid1B, JMJD2C and JMJD3 demethylase activity. Baculovirus-expressed Jarid1B (GenBank Accession # NM-006618, AA 2-751) was purchased from BPS Bioscience (Cat #50121) or custom made by MolecularThroughput. Baculovirus-expressed JMJD2C (GenBank Accession # BC143571, AA 2-372) was purchased from BPS Bioscience (Cat #50105). Baculovirus-expressed JMJD3 (GenBank Accession # NM_001080424, AA1043-end) was purchased from BPS Bioscience (Cat #50115).
The ability of test compounds to inhibit the activity of JMJD2C was determined in 384-well plate format under the following reaction conditions: 0.3 nM JMJD2C, 300 nM H3K9me3-biotin labeled peptide (Anaspec cat #464360), 2 μM alpha-ketoglutaric acid in assay buffer of 50 mM HEPES, pH 7.3, 0.005% Brij35, 0.5 mM TCEP, 0.2 mg/ml BSA, 50 μM sodium L-ascorbate, and 2 μM ammonium ironll sulfate. Reaction product was determined quantitatively by TR-FRET after the addition of detection reagent Phycolink Streptavidin-allophycocyanin (Prozyme) and Europium-anti-di-methylated histone H3 lysine 9 (H3K9me2) antibody (PerkinElmer) in the presence of 5 mM EDTA in LANCE detection buffer (PerkinElmer) at a final concentration of 50 nM and 1 nM, respectively.
The assay reaction was initiated by the following: 2 μl of the mixture of 900 nM H3K9me3-biotin labeled peptide and 6 μM alpha-ketoglutaric acid with 2 μl of 11-point serial diluted inhibitor in 3% DMSO were added to each well of the plate, followed by the addition of 2 μl of 0.9 nM JMJD2C to initiate the reaction. […] Plates were read by EnVisionMultilabel Reader in TR-FRET mode (excitation at 320 nm, emission at 615 nm and 665 nm) after 1 hr incubation at RT. A ratio was calculated (665/615) for each well and fitted to determine inhibition constant (IC50).
The ability to inhibit demethylase activity was quantified and the respective IC50 value was determined for substituted triazolylpyridine derivative compounds. […]

IC50 | SMILES
> 10 µM | Fc1cnccc1-c1nn[nH]c1C(F)(F)F [Example 1, 3-fluoro-4-[5-(trifluoromethyl)-1H-1,2,3-triazol-4-yl]pyridine]
> 10 µM | Fc1ccc(Cl)cc1Nc1cnccc1-c1nn[nH]c1C(F)(F)F [Example 2, N-(5-chloro-2-fluorophenyl)-4-[5-(trifluoromethyl)-1H-1,2,3-triazol-4-yl]pyridin-3-amine]
> 10 µM | FC(F)(F)c1[nH]nnc1-c1ccncc1NCC1CCCc2ccccc21 (stereo not drawn) [Example 3, N-[(1,2,3,4-tetrahydronaphthalen-1-yl)methyl]-4-[5-(trifluoromethyl)-1H-1,2,3-triazol-4-yl]pyridine-3-amine]
